# Measurements reported in US20080279907A1, “Antimicrobial medical devices and methods for making and using same” (Ash Access Technology, Inc., priority 2007, published 2008).
# Several values for one entry are separate records, joined by “and”; a condition that tells them apart may be missing. Equal entries are not always repeated.
# Legend:
# Format in all cases: physicochemical
# [1] = Leaching of methylene blue from treated catheter into normal saline replaced monthly; conditions: catheter treated with only methylene blue
# Excerpt: When the saline is replaced with fresh saline, exactly the same intense blue color developed in the fresh saline solution during the second month. This process of replacing the saline solution can be continued, that is, replacing the saline solution with fresh solution monthly, for at least nine months. The color resulting during the sixth month in the fresh saline solution is a light blue. If the process is continued for an additional 3 months or up to a total of 9 months, the resulting fresh saline solution is light blue in color, but the release of the dye continues.
# [2] = Total methylene blue loaded onto and released from polycarbonate discs and catheters, desorbed in MeOH (0.1% TFA), UV 662 nm
# Procedure: An experiment was performed in order to determine the total amount of methylene blue that was loaded onto a polycarbonate disc in comparison to a polycarbonate catheter. The discs were 1.27 cm or 0.5 inches in diameter and included a surface area of 2.53 cm^2 and a thickness of 0.60 mm. The catheter pieces were 1″ long and included a surface area of 4.64 cm^2 and a thickness of 0.51 mm. A 160 ml solution of 0.24 M sodium citrate was prepared into which 0.1% or […] of methylene blue was added. Then, 2%, or 3.2 g of ascorbic acid, was added to the solution and mixed for 1-2 minutes and 10 ml of the solution was placed into 25 ml flasks. The discs and catheter pieces were rinsed and placed into the 25 ml flasks of solution and placed on a shaker at 220 rpm at 37° C. for three hours. The catheter pieces and discs were removed, rinsed with distilled water, and dried. The catheter pieces and discs were desorbed in 20 ml of MeOH (w/0.1% TFA) and placed on the shaker until the membranes appeared whitish in color. Appropriate dilutions were made and the UV absorbance was measured at 662 nm. The methylene blue concentration was calculated based on a standard curve generated in a similar manner. The results are set forth below in Table 4 and 5.
# [3] = Perfusion of parabens and methylene blue through polycarbonate membrane in perfusion chamber (HPLC of lower chamber); conditions: for perfusion of methylene blue through membrane without activation: only 1,2-propanediol solution, absence of Citrate and activation by AA, after 4.5 days (Treatments 1 and 2)
# Procedure: An experiment was performed to determine a method for perfusing methylene blue, methyl paraben, and propyl paraben through a polycarbonate membrane with causing only minimal changes to the strength and elasticity of the membrane. In FIG. 12, there is illustrated a perfusion chamber system 50 used during the experiment. System 50 includes an upper chamber 51 and a lower chamber 52 separated by a polycarbonate membrane 53 having a thickness of 0.60 mm. The upper and lower chambers 51, 52 are generally structured to hold 10.5 cm^3 or 10.5 ml of fluid. The upper chamber 51 was connected to a peristaltic pump (not shown) and the lower chamber 52 was filled with distilled water. First and second solutions, respectively including the parabens and the methylene blue, were prepared in accordance with the method set forth in EXAMPLE 6 above. As best seen in Tables 6 and 7 below, the solutions were connected to the pump and passed through the first chamber 51 at a constant rate at 37° C. over various lengths of time.
# Table 6 includes data obtained from HPLC analysis comparing the methyl paraben, propyl paraben, and methylene blue concentrations in the lower chamber 52. The parameters for the methyl and propyl paraben and methylene blue treatments are indicated in the left hand columns.
# [4] = Desorption of methylene blue from impregnated catheter pieces in 0.9% saline (HPLC)
# Procedure: In another form of the present application, one inch polycarbonate catheter pieces including a surface area of about 4.64 cm^2 were impregnated with methylene blue. A solution of 0.24 M sodium citrate buffer pH 4.5 was prepared with 100 mg % methylene blue activated by 2% L-ascorbic acid immediately beforehand. Catheter pieces were placed in flasks containing the solution and the flasks were placed on a shaker at 220 rpm and 27° C. for 3 hours.
# Desorption analysis of the methylene blue impregnated catheter pieces was performed in a 0.9% solution of saline. The total amount of methylene blue released from the catheter pieces was calculated using HPLC analysis performed with a Waters Alliance 2690 including a 996 Photodiode Array Detector according to conditions in Example 4. The results of the HPLC analysis corresponding to the desorption of methylene blue from the methylene blue impregnated polymeric material are set forth in the graph of FIG. 10.
# One inch polycarbonate catheter pieces including a surface area of about 4.64 cm^2 were impregnated with methyl paraben and propyl paraben. A solution of 100% 1,2-propanediol was prepared with 9% methyl paraben and 2% propyl paraben. Pairs of the one inch catheter pieces were placed into three 25 ml flasks including 10 ml of parabens solution. The flasks were placed on a shaker at 220 rpm and 27° C. for two, four, or nine hours. At the end of each time period, the catheter pieces were removed, rinsed with distilled water, and dried.
# The catheter pieces were then impregnated with methylene blue. A solution of 0.24 M sodium citrate buffer with a pH of 4.5 was prepared with 100 mg % methylene blue activated by 2% L-ascorbic acid immediately beforehand. Catheter pieces were placed in flasks containing the solution and the flasks were placed on a shaker at 220 rpm and 27° C. for 3 hours. Desorption analysis of the parabens and methylene blue impregnated catheter pieces was performed in a 0.9% solution of saline according to the method described earlier.
# [5] = No Parabens, MB treatment 3 hrs 0.24 M Citrate buffer, 4.5 pH
# [6] = paraben treatment 2 hrs- 100% PG, 9% MP, 2% PP, MB treatment 3 hrs
# [7] = paraben treatment 4 hrs- 100% PG, 9% MP, 2% PP, MB treatment 3 hrs
# [8] = paraben treatment 9 hrs- 100% PG, 9% MP, 2% PP, MB treatment 3 hrs
# [9] = flat polycarbonate disc (discs 1-4), NO Parabens, MB treatment 3 hrs 0.24M Citrate Buffer, 4.5 pH, 100 mg % MB, 2% AA
structure (smiles),measurement,setting,value
"CN(C)c1ccc2nc3ccc(=[N+](C)C)cc-3sc2c1 [MB, methylene blue]",duration of release of the dye from treated catheter,[1],≥ 9 months
same,factor by which flat discs exceed catheters in total sorption and desorption of methylene blue per cm^2,"[2]; Tables 4 and 5, no parabens",~6.8
same,Average ug/cm^2 MB released,"[2]; average of flat discs 1-4, NO Parabens, MB treatment 3 hrs",1942.8 ug/cm^2
same,% MB released from catheter in saline desorption/total released in MeOH (0.1% TFA),[2]; [5],58.8%
same,mg released based on 1″ of catheter,[2]; [5],1.32 mg
same,mg released per cm^2 of catheter,[2]; [5],0.284 mg per cm^2
same,ug released per cm^2 of catheter,[2]; [5],284.5 ug per cm^2
same,% MB released from catheter in saline desorption/total released in MeOH (0.1% TFA),[2]; [6],73.2%
same,mg released based on 1″ of catheter,[2]; [6],1.65 mg
same,mg released per cm^2 of catheter,[2]; [6],0.356 mg per cm^2
same,ug released per cm^2 of catheter,[2]; [6],356.3 ug per cm^2
same,% MB released from catheter in saline desorption/total released in MeOH (0.1% TFA),[2]; [7],65.5%
same,mg released based on 1″ of catheter,[2]; [7],1.71 mg
same,mg released per cm^2 of catheter,[2]; [7],0.368 mg per cm^2
same,ug released per cm^2 of catheter,[2]; [7],368.5 ug per cm^2
same,% MB released from catheter in saline desorption/total released in MeOH (0.1% TFA),[2]; [8],76.4%
same,mg released based on 1″ of catheter,[2]; [8],1.78 mg
same,mg released per cm^2 of catheter,[2]; [8],0.384 mg per cm^2
same,ug released per cm^2 of catheter,[2]; [8],383.6 ug per cm^2
same,Amt MB (mg) released per square cm (mg/2.53 cm^2) on disc,[2]; [9],1.95 mg per square cm and 1.92 mg per square cm and 1.93 mg per square cm and 1.96 mg per square cm
same,Average amount (mg) released per disc,[2]; [9],4.94 mg and 4.87 mg and 4.88 mg and 4.97 mg
same,"ug/cm^2 MB released, flat disc",[2]; [9],1954.1 ug/cm^2 and 1923.6 ug/cm^2 and 1929.0 ug/cm^2 and 1964.3 ug/cm^2
same,time to perfuse through the membrane,"[3]; activated MB solution (citrate, AA), 0.60 mm polycarbonate membrane",~10 days
same,"concentration of methylene blue in lower chamber, in words",[3]; after 10 days of flow by activated solution,not significant
same,Total mg MB in 10.5 mL lower chamber,"[3]; lower chamber, parabens ~9 hrs at 37 C., then activated MB sol'n ~10 days",0.0105 mg
same,MB conc,"[3]; lower chamber, parabens ~9 hrs at 37 C., then activated MB sol'n ~10 days, changed every 1 day",0.001 mg/mL
same,perfusion of methylene blue through membrane without activation,[3]; listed as Methylene blue,would not perfuse
same,perfusion of methylene blue through membrane without activation,[3]; listed as methylene blue,minimal
same,period of significant release of methylene blue,"[4]; catheters preincubated with parabens, 0.9% saline",10 days
same,methylene blue release at the conclusion of the 81st day,"[4]; catheters pretreated with parabens, 0.9% saline (FIG. 11)",a small amount of methylene blue still being released
same,methylene blue release during the last 20 days of the experiment,"[4]; catheters treated only with methylene blue, 0.9% saline (FIG. 10)",negligible release
